Data on one compound can be found in US9096593B2, “Compounds and methods for kinase modulation, and indications therefor” (Plexxikon Inc., priority 2009, dated 2015).

One assay deals with BCR-FMS/BaF3 cells (Homo sapiens, UniProt P07333). Nature of the assay: BCR-FMS/BaF3 cell proliferation assay (ATPlite). It is filed as cell-based. As to the method:
Compounds are assessed in a variety of cell based assays. For example BCR-FMS/BaF3, BCR-KIT/BaF3, M-NFS-60, M-07e, and BAC1.2F5 cell proliferation assays are used to assess inhibitory activity of Fms or Kit and MV-4-11 cell proliferation assay is used to assess inhibitory activity in Flt-3. […] On day 1, cells are counted, then centrifuged in a conical tube for 5 minutes at 1000 rpm. The supernatant is removed and cells are re-suspended as follows: • BCR-FMS/BaF3 and BCR-KIT/BaF3: resuspend in growth media+1 mg/mL G418 (without WEHI/IL-3) to 2×10^5 cells/mL. • M-NFS-60: resuspend in growth media +62 ng/mL murine M-CSF to 5×10^5 cells/mL. • M-07e: resuspend in growth media +200 ng/mL human SCF to 5×10^5 cells/mL. • BAC1.2F5: resuspend in growth media +36 ng/mL murine M-CSF to 1.4×10^5 cells/mL. • MV-4-11: resuspend in growth media +10% FBS to 5×10^5 cells/mL. […] On day 2, compound at a maximum concentration of 5 mM is serially diluted 1:3 for a total of 8 point titration with DMSO as a control. A 1 μL aliquot of each dilution point is added to 249 μL growth media and 50 μL is added to a well containing cells, providing 10 μM compound for the maximum concentration point. The cells are incubated for 3 days at 37° C. in 5% CO2. […] ATPlite is added to each well as follows: • BCR-FMS/BaF3 and BCR-KIT/BaF3: 25 μL per well. • M-NFS-60: 25 μL per well. • M-07c: 40 μL per well. • BAC1.2F5: 50 μL per well. • MV-4-11: 40 μL per well. The cells are incubated at room temperature for 10 minutes, then luminescence is read on Safire reader. The measured luminescence correlates directly with cell number, such that the reading as a function of compound concentration is used to determine the IC50 value.
(In ATP-based viability assays light output follows the ATP content of the culture.)

A further assay concerns the target BCR-KIT/BaF3 cells (Homo sapiens, UniProt P10721). Nature of the assay: BCR-KIT/BaF3 cell proliferation assay (ATPlite). It counts as cell-based. Particulars: read-out: BCR/BaF3 (IC50 μM) Kit. As to the method:
Compounds are assessed in a variety of cell based assays. For example BCR-FMS/BaF3, BCR-KIT/BaF3, M-NFS-60, M-07e, and BAC1.2F5 cell proliferation assays are used to assess inhibitory activity of Fms or Kit and MV-4-11 cell proliferation assay is used to assess inhibitory activity in Flt-3. Reagent and assay conditions are as follows: • BCR-FMS/BaF3 and BCR-KIT/BaF3 cells: • Maintained in RPMI containing 10% FBS, 1% PenStrep, 1% NEAA, and 1% L-Glutamine, supplemented with 1 mg/mL G418 and 5% WEHI-CM (or recombinant murine IL-3). • Confluent cells are split 1:50 to 1:100 every 3-4 days. • M-NFS-60 cells (ATCC #CRL-1838): • Maintained in RPMI containing 10% FBS, 1% Hepes, 1% NaPyruvate, and 0.45% Glucose, supplemented with 62 ng/mL murine M-CSF. • Confluent cells are split 1:20 every 3-4 days. • M-07e cells (DSMZ #ACC 104): • Maintained in IMDM containing 10% FBS, supplemented with either 200 ng/mL human SCF or […] SCF (R&D Systems 255-SC). • Confluent cells are split 1:5 to 1:10 every 3-4 days. • BAC1.2F5 cells: • Maintained in Alpha-MEM containing 10% Newborn Calf Serum (Invitrogen #26010-074) supplemented with 36 ng/mL murine M-CSF. • Confluent cells are split 1:4 every 3-4 days. • MV-4-11 cells: • Maintained in Iscove's Modified Dulbecco's Medium containing 10% FBS. • Confluent cells are split 1:4 every 3-4 days. On day 1, cells are counted, then centrifuged in a conical tube for 5 minutes at 1000 rpm. The supernatant is removed and cells are re-suspended as follows: • BCR-FMS/BaF3 and BCR-KIT/BaF3: resuspend in growth media+1 mg/mL G418 (without WEHI/IL-3) to 2×10^5 cells/mL. • M-NFS-60: resuspend in growth media +62 ng/mL murine M-CSF to 5×10^5 cells/mL. • M-07e: resuspend in growth media +200 ng/mL human SCF to 5×10^5 cells/mL. • BAC1.2F5: resuspend in growth media +36 ng/mL murine M-CSF to 1.4×10^5 cells/mL. • MV-4-11: resuspend in growth media +10% FBS to 5×10^5 cells/mL. The cells are plated (50 μL) in each well of a 96-well dish (Corning 3610) and incubated at 37° C. in 5% CO2 overnight, cells plated to a final concentration of cells as follows: • BCR-FMS/BaF3 and BCR-KIT/BaF3: 10,000 cells per well. • M-NFS-60: 25,000 cells per well. • M-07e: 25,000 cells per well. • BAC1.2F5: 7,000 cells per well. • MV-4-11: 25,000 cells per well. On day 2, compound at a maximum concentration of 5 mM is serially diluted 1:3 for a total of 8 point titration with DMSO as a control. A 1 μL aliquot of each dilution point is added to 249 μL growth media and 50 μL is added to a well containing cells, providing 10 μM compound for the maximum concentration point. The cells are incubated for 3 days at 37° C. in 5% CO2. On day 5, ATPlite 1 step Luminescence Assay System (Perkin Elmer #6016739) is brought to room temperature along with the cell cultures. ATPlite is added to each well as follows: • BCR-FMS/BaF3 and BCR-KIT/BaF3: 25 μL per well. • M-NFS-60: 25 μL per well. • M-07c: 40 μL per well. • BAC1.2F5: 50 μL per well. • MV-4-11: 40 μL per well. The cells are incubated at room temperature for 10 minutes, then luminescence is read on Safire reader. The measured luminescence correlates directly with cell number, such that the reading as a function of compound concentration is used to determine the IC50 value.

A further assay addresses Fms kinase (Homo sapiens (Human), UniProt P07333). Description: Fms kinase biochemical activity assay (AlphaScreen, biotin-(E4Y)10 phosphorylation). The settings on record: read-out: Biochemical activity (IC50 μM) Fms. As to the method: In one assay the biochemical activity IC50 values are determined with respect to inhibition of Fms kinase activity, where inhibition of phosphorylation of a peptide substrate is measured as a function of compound concentration. Compounds to be tested, dissolved in DMSO (1 μL), are added to a white 384-well plate (Costar #3705). Working stocks of Fms kinase (Invitrogen #PV3249), biotin-(E4Y)10 substrate (Upstate Biotech, Cat#12-440), and ATP (Sigma, Cat#A-3377) are prepared in 25 mM Hepes pH 7.5, 0.5 mM MgCl2, 2 mM MnCl2, 2 mM DTT, 0.01% BSA, and 0.01% Tween-20. All components are added to the 384-well plate for a final concentration of 1 ng/well Fms, 30 nM biotin-(E4Y)10 (Upstate Biotechnology) and 100 μM ATP in a volume of 20 μL. Each sample is at 5% DMSO. The plate is then incubated for 20 minutes at 30° C. Just before use, working stocks of donor and acceptor beads from the AlphaScreen PY20 Detection Kit (PerkinElmer, Cat#676601M) are prepared in 25 mM Hepes pH 7.5, pH 7.4, 100 mM EDTA, 0.01% BSA. To stop the reaction, the plate is uncovered in the dark and 5 μL of Donor Beads solution (Streptavidin beads) is added to each well. The plate is incubated at room temperature for 20 minutes. Five microliters of Acceptor Beads solution (PY20 coated beads) are then added to each well. The final concentration of each bead is 10 μg/mL. The plates are incubated at room temperature for 60 minutes. Fluorescence signal is recorded on the Envision reader. […] The signal vs. compound concentration is used to determine the IC50.

Chain of BCR-FMS/BaF3 cells (P07333 20-972 limits assumed, change not shown): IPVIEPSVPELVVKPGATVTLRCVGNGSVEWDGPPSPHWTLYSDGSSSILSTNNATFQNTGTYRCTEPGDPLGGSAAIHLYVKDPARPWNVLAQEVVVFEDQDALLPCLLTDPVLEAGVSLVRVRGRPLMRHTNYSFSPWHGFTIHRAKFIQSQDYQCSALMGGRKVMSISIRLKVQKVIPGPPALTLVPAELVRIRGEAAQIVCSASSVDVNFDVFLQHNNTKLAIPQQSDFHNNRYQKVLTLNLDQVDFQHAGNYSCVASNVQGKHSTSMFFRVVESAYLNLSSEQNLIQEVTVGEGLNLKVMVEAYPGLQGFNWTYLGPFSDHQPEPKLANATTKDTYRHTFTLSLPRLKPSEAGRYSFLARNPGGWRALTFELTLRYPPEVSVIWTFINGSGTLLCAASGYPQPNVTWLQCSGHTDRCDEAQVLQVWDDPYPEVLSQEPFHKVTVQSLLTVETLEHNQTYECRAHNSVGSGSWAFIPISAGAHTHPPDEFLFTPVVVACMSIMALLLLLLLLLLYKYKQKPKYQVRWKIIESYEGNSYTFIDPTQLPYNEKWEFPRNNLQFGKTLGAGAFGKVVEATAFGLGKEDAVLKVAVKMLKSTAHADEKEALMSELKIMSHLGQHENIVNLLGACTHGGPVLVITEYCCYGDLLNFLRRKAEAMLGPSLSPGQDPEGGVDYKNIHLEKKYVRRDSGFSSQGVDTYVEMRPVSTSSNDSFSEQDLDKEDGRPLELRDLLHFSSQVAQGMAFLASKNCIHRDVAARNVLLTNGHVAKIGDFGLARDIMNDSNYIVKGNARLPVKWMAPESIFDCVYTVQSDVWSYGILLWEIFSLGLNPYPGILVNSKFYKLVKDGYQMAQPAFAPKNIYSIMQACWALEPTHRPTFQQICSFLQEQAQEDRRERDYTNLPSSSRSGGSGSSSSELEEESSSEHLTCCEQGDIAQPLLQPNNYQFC
Chain of BCR-KIT/BaF3 cells (P10721 26-976 limits assumed, change not shown): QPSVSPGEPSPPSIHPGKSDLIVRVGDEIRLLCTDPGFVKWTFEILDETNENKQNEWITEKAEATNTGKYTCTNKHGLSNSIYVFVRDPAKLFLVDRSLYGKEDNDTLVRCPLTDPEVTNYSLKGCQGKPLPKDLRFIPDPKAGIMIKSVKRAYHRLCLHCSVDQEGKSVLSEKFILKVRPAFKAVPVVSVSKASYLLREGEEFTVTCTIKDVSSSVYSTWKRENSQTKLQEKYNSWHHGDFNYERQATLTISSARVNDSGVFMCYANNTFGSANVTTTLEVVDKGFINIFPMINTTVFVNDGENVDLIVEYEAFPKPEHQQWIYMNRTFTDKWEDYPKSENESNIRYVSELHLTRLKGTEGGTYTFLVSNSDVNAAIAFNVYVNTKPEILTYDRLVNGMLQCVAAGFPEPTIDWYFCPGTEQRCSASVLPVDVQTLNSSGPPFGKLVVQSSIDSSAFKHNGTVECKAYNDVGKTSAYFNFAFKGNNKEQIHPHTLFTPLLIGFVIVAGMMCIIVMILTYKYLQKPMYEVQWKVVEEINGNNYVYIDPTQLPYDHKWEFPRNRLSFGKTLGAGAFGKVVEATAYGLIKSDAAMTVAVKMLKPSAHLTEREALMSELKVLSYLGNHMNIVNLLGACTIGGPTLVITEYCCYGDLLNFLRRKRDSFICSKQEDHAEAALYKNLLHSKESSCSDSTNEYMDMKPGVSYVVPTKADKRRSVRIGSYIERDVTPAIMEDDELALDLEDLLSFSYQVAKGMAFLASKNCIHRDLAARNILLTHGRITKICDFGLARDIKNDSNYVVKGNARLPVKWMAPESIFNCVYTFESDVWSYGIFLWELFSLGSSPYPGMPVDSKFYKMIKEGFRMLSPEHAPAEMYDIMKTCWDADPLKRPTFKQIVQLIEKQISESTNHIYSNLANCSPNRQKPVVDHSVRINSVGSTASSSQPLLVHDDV
Chain of Fms kinase (P07333 20-972): as the sequence (P07333 20-972 limits assumed, change not shown) above

As to `COc1ccc(CNc2ccc(Cc3c[nH]c4ncc(Cl)cc34)cn2)c(OC)n1` [Compound P-1496, [5-(5-Chloro-1H-pyrrolo[2,3-b]pyridin-3-ylmethyl)-pyridin-2-yl]-(2,6-dimethoxy-pyridin-3-ylmethyl)-amine], the IC50 at BCR-FMS/BaF3 cells (BCR-FMS/BaF3 cells, read-out: BCR/BaF3 (IC50 μM) Fms) is less than 0.1 µM; on BCR-KIT/BaF3 cells, greater than 0.1 µM; on Fms kinase it was less than 0.1 µM. The “BCR/BaF3 selectivity (Kit IC50/Fms IC50)” value on BCR-FMS/BaF3 cells (Kit IC50/Fms IC50, BCR-KIT/BaF3 vs BCR-FMS/BaF3 cells) is on record as greater than 20.
